Data published in US11173146B2, “Selective activators of the intermediate conductance CA2+activated K+ channel KCa3.1 and their methods of use” (The Regents of the University of California, priority 2014, dated 2021).
“Also recorded” adds a separate entry of the source. Read-outs that look alike come from different tables or passages of the source.

Legend:
human KCa2.3 = biological target: T1, human KCa2.3 (Homo sapiens, UniProt Q9UGI6); assay: Manual whole-cell patch-clamp KCa2.3 activation (COS-7); assay type: cell-based
T1 construct: The cloning of hKCa2.3 (19 CAG repeats) and hKCa3.1 has been previously described (Wulff et al., 2000)
Source text: (§1) Cells, Cell lines and Clones. […] The cloning of hKCa2.3 (19 CAG repeats) and hKCa3.1 has been previously described (Wulff et al., 2000). The hKCa2.3 clone was later stably expressed in COS-7 cells at Aurora Biosciences Corp., San Diego, Calif. Cell lines stably expressing other mammalian ion channels were gifts from several sources: hKCa1.1 in HEK-293 cells (Andrew Tinker, University College London); hKV2.1 in HEK293 cells (James Trimmer, UC Davis); KV11.1 (HERG) in HEK-293 cells (Craig January, University of Wisconsin, Madison); hNaV1.4 in HEK-293 cells (Frank Lehmann-Horn, University of Ulm, Germany), hNaV1.5 in HEK-293 cells (Christopher Lossin, University of California Davis), and hCaV1.2 in HEK-293 cells (Franz Hofmann, Munich, Germany).
(§2) Electrophysiology. Experiments were conducted either manually with an EPC-10 amplifier (HEKA, Lambrecht/Pfalz, Germany) or on a QPatch-16 automated electrophysiology platform (Sophion Biosciences, Denmark). […] Patch pipettes were pulled from soda lime glass (micro-hematocrit tubes, Kimble Chase, Rochester, N.Y.) and had resistances of 2-3 MΩ. […] Free Ca^2+ concentrations were calculated with MaxChelator assuming a temperature of 25° C., a pH of 7.2 and an ionic strength of 160 mM. […] Na^+ aspartate Ringer was used as an external solution (in mM): 160 Na^+ aspartate, 4.5 KCl, 2 CaCl2, 1 MgCl2, 5 HEPES, pH 7.4, 290-310 mOsm. […] Reduction of both peak and tail current by the drug was determined. NaV1.7 currents were recorded with 30 ms pulses from −90 mV to −10 mV every 10 sec with a CsF-based pipette solution and normal Ringer as an external solution. CaV1.2 currents were elicited by 100-ms depolarizing pulses from −80 to 20 mV every 10 sec with a CsCl-based pipette solution and an external solution containing 30 mM BaCl2. Blockade of both Na^+ and Ca^2+ currents was determined as reduction of the current minimum.
For all electrophysiology experiments solutions of benzothiazoles and benzooxazoles were always freshly prepared from 1 mM or 10 mM stock solutions in DMSO during the experiment. The final DMSO concentration never exceeded 1%. For automated assays glass vial inserts (Sophion Biosciences, Denmark) were filled with 350-400 μL of compound solution and placed into the glass insert base plate for use in the QPatch assay right before starting the QPatch.
The compounds synthesized by these methods as well as five commercially available compounds were tested for their KCa2.3 and KCa3.1 activating activity using either manual or automated whole-cell patch-clamp. Our group previously described the establishment of a QPatch assay for KCa3.1 modulators. […] We here made use of this assay and determined EC50 values for KCa3.1 activation using HEK-293 cells stably expressing human KCa3.1. Activities on human KCa2.3 were determined by manual electrophysioiogy since we currently only have KCa2.3 available in COS-7 cells, which are difficult to handle on the QPatch.

KCa3.1 [1] = biological target: T2, KCa3.1 (Homo sapiens, UniProt O15554+P0DP23); assay: Whole-cell patch-clamp KCa3.1 activation (QPatch, HEK-293); assay type: cell-based; parameters: host or cells: HEK-293; settings: for effect of structural change on KCa2.3 and KCa3.1 activation compared with SKA-31: SAR, FIG. 2; for reduction of potency compared with SKA-31: KCa3.1
Source text: as §1, §2
For automated electrophysiology experiments cells were grown to ˜70% confluency, rinsed in sterile PBS containing 0.02% EDTA, and lifted with 2 mL of TrypLE™ Express (Gibco, Grand Island, N.Y.) for ˜2 min. When cells were rounded but not detached, they were dislodged by gentle tapping, suspended in DMEM, centrifuged and resuspended in 1 ml of external solution, placed into the Qfuge tube and resuspended in 150-200 μL extracellular solution after one additional spin on the QPatch. Whole-cell patch-clamp experiments were then carried out using disposable 16-channel planar patch chip plates (QPlates; patch hole diameter approximately 1 μm, resistance 2.00±0.02 MΩ). […] In order to avoid rejection of cells with large KCa3.1 currents the minimum seal resistance for whole-cell requirement was lowered to 0.001 GΩ. […] Following establishment of the whole-cell configuration, cells were held at −80 mV and KCa3.1, KCa2.1 or KCa2.2 currents elicited by a voltage protocol that held at −80 mV for 20 ms, stepped to −120 mV for 20 ms, ramped from −120 to 40 mV in 200 ms and then stepped back to −120 mV for 20 ms. This pulse protocol was applied every 10 s. […] NaV1.2 currents from N1E-115 cells, NaV1.4 and NaV1.5 currents from stably transfected HEK cells were recorded with 20 ms pulses from −90 mV to 0 mV every 10 sec with a KF-based internal solution and normal Ringer as an external solution. Current slopes (in ampere per sec) were measured using the SophionQPatch software and exported to Microsoft Excel and Origin 7.0 (OriginLab Corp. MA) for analysis. […] Data fitting to the Hill equation to obtain EC50 and IC50 values was performed with Origin 7.0. Data are expressed as mean±SD.

KCa3.1 [2] = biological target: T2, KCa3.1; settings: literature; cited from earlier work
KCa2.1 = KCa2.1 (Homo sapiens, UniProt Q92952); settings: literature, cited from earlier work
[3] = system: porcine coronary arteries; assay: Isometric myography on porcine coronary arteries, bradykinin-induced EDH-type relaxation; settings: blocker 1 μM
Source text: Isometric Myography on Porcine Coronary Arteries (PCA). PCA were carefully dissected from hearts kindly provided by the local abattoir (Mercazaragoza, Zaragoza, Spain), cleaned of fat and connective tissue, and cut into 3-4 mm rings. Rings were mounted on hooks connected to an isometric force transducer (Pioden UF1, Graham Bell House, Canterbury, UK) and were pre-stretched to an initial tension of 1 g. […] Changes in tension were registered using a Mac Lab System/8e program (AD Instruments Inc., Milford, Mass.). The buffer contained the NO-synthase blocker, Nω-nitro-L-arginine (L-NNA, 300 μM), and the cyclooxygenase blocker indomethacin (10 μM) in order to measure EDH-type relaxation. […] After washout, rings were contracted with a high KCl buffer (60 mM) to determine maximal contraction. […] UCL1684 and U46619 were purchased from Tocris (Wiesbaden-Nordenstadt, Germany). Data analysis: EDH-type relaxations were determined as % change of U46619 contraction and are shown relative to the totally relaxed state (w/o U46619).

KCa2 channels = settings: all three KCa2 channels; literature; cited from earlier work
[4] = Appendix A, read-out: KCa2.3 EC50
[5] = 250 nM free Ca2+, read-out: EC50 for KCa3.1 activation
[6] = Appendix A, read-out: KCa3.1 EC50 (converted)
[7] = 250 nM free Ca2+, read-out: EC50 for KCa2.3 activation

T1 sequence (Q9UGI6 with tags, fused parts or gaps DUP76-80): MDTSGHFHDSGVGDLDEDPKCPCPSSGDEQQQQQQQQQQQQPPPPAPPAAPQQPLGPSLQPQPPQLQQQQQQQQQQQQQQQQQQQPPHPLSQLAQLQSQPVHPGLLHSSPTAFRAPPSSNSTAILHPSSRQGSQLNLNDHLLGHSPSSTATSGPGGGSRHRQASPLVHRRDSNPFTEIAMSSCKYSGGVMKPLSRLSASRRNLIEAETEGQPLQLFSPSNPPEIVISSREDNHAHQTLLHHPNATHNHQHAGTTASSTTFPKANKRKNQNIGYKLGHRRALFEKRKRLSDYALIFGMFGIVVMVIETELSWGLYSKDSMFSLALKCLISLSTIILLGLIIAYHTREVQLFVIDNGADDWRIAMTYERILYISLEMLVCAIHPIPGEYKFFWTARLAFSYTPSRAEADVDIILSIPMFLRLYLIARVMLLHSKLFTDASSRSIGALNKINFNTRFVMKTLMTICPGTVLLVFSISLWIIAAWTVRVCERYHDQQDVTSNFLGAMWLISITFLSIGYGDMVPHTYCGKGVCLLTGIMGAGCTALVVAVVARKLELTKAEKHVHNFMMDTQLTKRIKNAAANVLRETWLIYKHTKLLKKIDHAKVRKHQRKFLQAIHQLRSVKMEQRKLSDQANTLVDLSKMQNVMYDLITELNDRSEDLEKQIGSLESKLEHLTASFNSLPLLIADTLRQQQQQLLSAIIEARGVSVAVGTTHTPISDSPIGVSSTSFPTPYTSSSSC

Compound | melting point | effect of structural change on KCa2.3 and KCa3.1 activation compared with SKA-31 (KCa3.1 [1]) | also measured
Nc1nc2c(ccc3ccccc32)o1 [SKA-102, Naphtho[1,2-d]oxazol-2-amine] |  |  | EC50 (human KCa2.3; [4]): 24 µM; EC50 (KCa3.1 [1]; [5]): 2.7 µM
Nc1nc2c(s1)Cc1cc(F)ccc1-2 [SKA-71, 6-Fluoro-8H-indeno[1,2-d]thiazol-2-amine] | 217 °C (dec.) | reduced both potency and selectivity | 
Cc1cc(C)n(-c2nc(Nc3ccc(Cl)cc3)c3ncn(C)c3n2)n1 [NS13001] |  |  | activity on KCa3.1 (KCa3.1 [2]): completely inactive; activity on KCa2.1 (KCa2.1): completely inactive
Clc1ccccc1C(c1ccccc1)(c1ccccc1)n1cccn1 [TRAM-34, 1-[(2-chlorophenyl)diphenylmethyl]-1H-pyrazole, reference compound] |  |  | effect on the potentiation of BK-induced relaxation by SKA-111/SKA-121 [3]: prevented the increase of relaxation; also recorded: prevented this potentiation
Cc1cc(C)c2c(c1)-c1nc(N)sc1CC2 [SKA-108, 6,8-Dimethyl-4,5-dihydronaphtho[1,2-d]thiazol-2-amine] | 159 °C | reduced both potency and selectivity | 
Cc1nc2cc3ccccc3cc2o1 [SKA-104, 2-methylnaphtho[2,3-d]oxazole] |  | completely abolished activity | EC50 (KCa3.1 [1]; [6]): > 50 µM
COc1cccc2c1CCc1sc(N)nc1-2 [SKA-114, 6-Methoxy-4,5-dihydronaphtho[1,2-d]thiazol-2-amine] | 200 °C | reduced both potency and selectivity | 
Nc1nc2c(cc3c4c(cccc42)CC3)s1 [SKA-73, 4,5-Dihydroaceoaphtho[5,4-d]thiazol-8-amine] | 257 °C |  | EC50 (human KCa2.3; [7]): 1 µM; EC50 (KCa3.1 [1]; [5]): 1 µM
Cc1nc2c(ccc3ccccc32)s1 [SKA-74, 2-methylnaphtho[1,2-d]thiazole] |  | completely abolished activity | EC50 (KCa3.1 [1]; [6]): 7.8 µM
Cc1cc2oc(N)nc2c2ccccc12 [SKA-120, 5-Methylnaphtho[1,2-d]oxazol-2-amine] |  |  | EC50 (KCa3.1 [1]; [5]): 0.18 µM; EC50 (KCa3.1 [1]; [6]): 0.45 µM; selectivity for KCa3.1 over KCa2.3 (KCa3.1 [1]; ratio of EC50 values): ~50 fold
Nc1nc2c(s1)Cc1ccccc1-2 [SKA-69, 8H-Indeno[1,2-d]thiazol-2-amine] |  | reduced both potency and selectivity | 
Nc1nc2c(s1)CCc1ccccc1-2 [SKA-70, 4,5-Dihydronaphtho[1,2-d]thiazol-2-amine] |  | reduced both potency and selectivity | 
Cc1cc(C)c2ccc3sc(N)nc3c2c1 [SKA-109, 6,8-Dimethylnaphtho[1,2-d]thiazol-2-amine] | 157 °C |  | reduction of potency compared with SKA-31 (KCa3.1 [1]): 10 fold
Nc1nc(-c2cccc3ccccc23)cs1 [SKA-75, 2-Amino-4-(1-naphthyl)thiazole] |  | reduced both potency and selectivity | 
Nc1nc(-c2ccc3ccccc3c2)cs1 [SKA-76, 2-amino-4-(2-naphthyl)thiazole] |  | reduced both potency and selectivity | 
N#Cc1cc2sc(N)nc2c2ccccc12 [SKA-107, 2-Aminonaphtho[1,2-d]thiazole-5-carbonitrile] | 265 °C | reduced potency and selectivity | 
Nc1nc2c(cc(Cl)c3ccccc32)s1 [SKA-72, 5-Chloronaphtho[1,2-d]thiazol-2-amine] | 253 °C |  | EC50 (human KCa2.3; [7]): 0.335 µM; EC50 (KCa3.1 [1]; [5]): 0.11 µM
CON=CNc1nc2nccc(C(C)Oc3ccc(Cl)cc3C)n2n1 (single isomer, unassigned; (-)) [(-)-CM-TMPF, N-{7-[1-(4-chloro-2-methylphenoxy)ethyl]-[1,2,4]triazolo[1,5-a]pyrimidin-2-yl}-N′-methoxy-formamidine] |  |  | KCa2.1 currents increased to % of their maximal activity (KCa2.1; Ca2+ concentrations between 10 and 100 nM): roughly 40%
Nc1nc2c(cc(F)c3ccccc32)s1 [SKA-106, 5-Fluoronaphtho[1,2-d]thiazol-2-amme] |  |  | reduction of potency compared with SKA-31 (KCa3.1 [1]): roughly 10 fold
Nc1nc2c(ccc3sccc32)s1 [SKA-110, Thieno[2′,3′:5,6]benzo[1,2-d]thiazol-2-amine] | 161 °C | reduction in potency | 
Nc1nc2c3c(ccc2s1)CCC3 [SKA-81, 7,8-Dihydro-6H-indeno[4,5-d]thiazol-2-amine] | 195 °C | reduction in potency | 
Cc1cc(NC2CCCCC2)nc(-n2nc(C)cc2C)n1 [CyPPA, cyclohexyl-[2-(3,5-dimethyl-pyrazole-1-yl-)6-methyl-pyrimidin-4-yl]-amine] |  |  | activity on KCa3.1 (KCa3.1 [2]): completely inactive; activity on KCa2.1 (KCa2.1): completely inactive
CC1=Nc2c(ccc3ccccc23)C1(C)C [SKA-92, 2,3,3-trimethyl-3H-benzo[g]indole] |  | completely abolished activity | EC50 (human KCa2.3; [4]): > 50 µM; EC50 (KCa3.1 [1]; [6]): 42 µM
CCn1c(=O)[nH]c2ccccc21 [EBIO, 1-ethylbenzimidazolin-2-one] |  |  | EC50 (KCa2 channels): ~300 µM
COc1cc2sc(N)nc2c2ccccc12 [SKA-117, 5-Methoxynaphtho[1,2-d]thiazol-2-amine] | 213 °C | reduced potency and selectivity | 
c1cc2cc(c1)C[n+]1ccc(c3ccccc31)NCc1ccc(cc1)CNc1cc[n+](c3ccccc13)C2 [UCL1684, 6,10-diaza-3(1,3)8,(1,4)-dibenzena-1,5(1,4)-diquinolinacyclodecaphane, reference compound] |  |  | effect on KCa2.3 currents activated by 20 μM SKA-121 (human KCa2.3; FIG. 4F): had a similar effect
CC1Cc2sc(N)nc2-c2ccccc21 (stereo not shown) [SKA-113, 5-Methyl-4,5-dihydronaphtho[1,2-d]thiazol-2-amine] | 109 °C (dec.) | reduced both potency and selectivity | 
